Values after ≈ are worked out from the molar mass of the structure shown. Values joined by “and” are separate entries in the source; they are usually repeats but may differ in a detail not shown here. Equal values may be shown once. Read-outs that look alike come from different tables or passages of the source.
Experiments:
Type in all cases: cell-based
[1] = system: human breast cancer cell line (MDA-MB231); assay: MTT cytotoxicity assay, MDA-231; settings: MDA-MB-231, 48 h exposure, read-out: Cytotoxic activity IC50, MDA-231
Procedure: (§1) The metabolites 1–4 were evaluated for their cytotoxic activities against human malignant melanoma cell line (A375), human ovarian cancer cell line (SKOV-3), human breast cancer cell line (MDA-MB231), human gastric cancer cell line (MGC-803) and human normal cell line (L-02) with the MTT method ([Wang et al., 2022]). The cell lines were maintained in Dulbecco’s modified eagle medium (DMEM) supplemented with 10% fetal bovine serum (FBS) along with 1% penicillin and streptomycin. Cells were grown at 37°C in an atmosphere with 5% CO2 and then seeded in 96-well plates and permitted to grow for 20 h. Then tested compounds at preset concentrations were added. The 3-(4,5-dimethylthiazol-2-yl)-2,5-diphenyltetrazolium bromide (MTT; 20 μl, 5 mg/ml) was added into each well after a 48 h exposure period. After an additional 4 h further incubation, the medium was replaced by DMSO (150 μl), then shaking the plates for 15 min. The absorbance at 490 nm were recorded. The percentage of cell viability was calculated using the following formula: Cell viability (%) = the OD of tested group/the OD of CK × 100%. Finally, IC50 values were determined by EXCEL. The azithromycin was used as positive control.

[2] = MTT cytotoxicity assay, L-02; settings: human, L-02 normal liver cells, 48 h exposure, normal cell line, read-out: Cytotoxic activity IC50, L-02
Procedure: as §1

[3] = system: human ovarian cancer cell line (SKOV-3); assay: MTT cytotoxicity assay, SKOV-3; settings: SK-OV-3, 48 h exposure, read-out: Cytotoxic activity IC50, SKOV-3
Procedure: as §1

[4] = system: human gastric cancer cell line (MGC-803); assay: MTT cytotoxicity assay, MGC-803; settings: 48 h exposure, read-out: Cytotoxic activity IC50, MGC-803
Procedure: as §1

[5] = system: human malignant melanoma cell line (A375); assay: MTT cytotoxicity assay, A375; settings: A-375, 48 h exposure, read-out: Cytotoxic activity IC50, A375
Procedure: as §1

[6] = system: Escherichia coli (ATCC8739); assay: Filter paper disc diffusion, E. coli; settings: 30 μg/filter paper (6 mm disc), 37°C, 12 h; dash = No inhibited
Procedure: (§2) The Staphylococcus aureus (ATCC6538), methicillin-resistant S. aureus (MRSA, SA2), Escherichia coli (ATCC8739) and Micrococcus tetragenus (ATCC35098) donated by Professor Ting Xue from Anhui Agricultural university were used as a target pathogen for the examination of antibacterial activity of the metabolites. The disc diffusion ([Özogul et al., 2022]) and minimum inhibitory concentrations (MICs; [Cui et al., 2022]) methods were performed to evaluate the antibacterial activities of the new natural metabolites 1, 2, and 4. Filter paper disks (6 mm) with metabolite dissolved in DMSO in a concentration (30 μg/filter paper) were added to the culture medium, and the plates were incubated at 37°C for 12 h. Filter papers with DMSO and levofloxacin were set as negative and positive controls, respectively. All experiments were performed in triplicate, and data were shown as mean values standard deviation. And the MICs of the compounds were determined by the method as we previously described ([Cui et al., 2022]).

[7] = system: Staphylococcus aureus (ATCC6538); assay: Filter paper disc diffusion, S. aureus; settings: 30 μg/filter paper (6 mm disc), 37°C, 12 h, dash = No inhibited
Procedure: as §2

[8] = system: Staphylococcus aureus (ATCC6538); assay: Minimum inhibitory concentration assay, S. aureus; settings: for MIC: Staphylococcus aureus, ATCC6538
Procedure: as §2

[9] = system: methicillin-resistant S. aureus (MRSA, SA2); assay: Filter paper disc diffusion, MRSA; settings: 30 μg/filter paper (6 mm disc), 37°C, 12 h, dash = No inhibited
Procedure: as §2

[10] = system: Micrococcus tetragenus (ATCC35098); assay: Filter paper disc diffusion, M. tetragenus; settings: 30 μg/filter paper (6 mm disc), 37°C, 12 h, dash = No inhibited
Procedure: as §2

[11] = system: methicillin-resistant S. aureus (MRSA, SA2); assay: Minimum inhibitory concentration assay, MRSA
Procedure: as §2

[12] = system: Micrococcus tetragenus (ATCC35098); assay: Minimum inhibitory concentration assay, M. tetragenus; settings: for MIC: Micrococcus, ATCC35098
Procedure: as §2

[13] = system: human cancer cell lines (A375, SKOV-3, MDA-231 and MGC-803); assay: MTT cytotoxicity assay, tested human cancer cell lines together; settings: range over A375, SKOV-3, MDA-231 and MGC-803, read-out: IC50 values against the tested human cancer cell lines
Procedure: as §1

[14] = system: Escherichia coli (ATCC8739); assay: Minimum inhibitory concentration assay, E. coli
Procedure: as §2

[15] = Staphylococcus aureus, MRSA; read-out: Minimum inhibitory concentration (MIC), MRSA

Work on `CC[C@H]1OC(=O)[C@H](C)[C@@H](O[C@H]2C[C@@](C)(OC)[C@@H](O)[C@H](C)O2)[C@H](C)[C@@H](O[C@@H]2O[C@H](C)C[C@H](N(C)C)[C@H]2O)[C@](C)(O)C[C@@H](C)CN(C)[C@H](C)[C@@H](O)[C@]1(C)O` [Azithromycin, azithromycin, reference compound] yielded an IC50 [1] of 4.03 ± 0.43 µM, an IC50 at 48 h [2] of 7.34 ± 1.15 µM and an IC50 [3] of 0.41 ± 0.12 µM. The IC50 [4] was 1.57 ± 0.03 µM and the IC50 [5] was 0.79 ± 0.13 µM.
With `Nc1cc2nc3cc(CO)ccc3oc-2cc1=O` [Compound 1, 2-amino-8-hydroxymethyl-3H-phenoxazin-3-one] the “Zone of inhibition (ZOI), Escherichia coli” value [6] was “–^b”, the IC50 [1] was 55.9 ± 7.47 µM and the “Zone of inhibition (ZOI), Staphylococcus aureus” value [7] was 17.2 mm and 17.2 ± 0.2 mm. The “Minimum inhibitory concentration (MIC), Staphylococcus aureus” value [8] was 12.5 µg/mL (≈ 51.6 µM), the MIC [8] was 12.5 µg/mL (≈ 51.6 µM) and the IC50 at 48 h [2] was 72 ± 7.22 µM. The “Zone of inhibition (ZOI), MRSA” value [9] was 15.3 mm and 15.3 ± 0.1 mm, the IC50 [3] was 22.3 ± 3.78 µM and the “Zone of inhibition (ZOI), Micrococcus tetragenus” value [10] was 15.3 mm and 15. mm and 15.3 ± 0.2 mm. It also gave an MIC [11, 15] of 25 µg/mL (≈ 103 µM), an MIC [12] of 12.5 µg/mL (≈ 51.6 µM) and an IC50 [4] of 50.2 ± 7.01 µM. The IC50 [13] was 22.3 to 67.7 µM, the IC50 [5] was 67.7 ± 4.31 µM and the MIC [14] was > 100 µg/mL.
For `CC(=O)OCc1ccc2oc3cc(=O)c(N)cc-3nc2c1` [Compound 2, exfoliazone B], the “Zone of inhibition (ZOI), Escherichia coli” value [6] was “–^b”, the IC50 [1] was > 100 µM and the “Zone of inhibition (ZOI), Staphylococcus aureus” value [7] was “–^b”. For the same molecule, the MIC [8] was > 100 µg/mL, the IC50 at 48 h [2] was > 100 µM and the “Zone of inhibition (ZOI), MRSA” value [9] was “–^b”. For the same molecule, the IC50 [3] was 75.8 ± 5.77 µM, the “Zone of inhibition (ZOI), Micrococcus tetragenus” value [10] was “–^b” and the MIC [11, 15] was > 100 µg/mL. For the same molecule, the MIC [12] was 50 µg/mL (≈ 176 µM), the IC50 [4] was 69.9 ± 1.94 µM and the IC50 [5] was > 100 µM. For the same molecule, the MIC [14] was > 100 µg/mL.
In the case of `CC(=O)Nc1cc(CNc2cc3nc4cc(CO)ccc4oc-3cc2=O)ccc1O` [Compound 3, exfoliazone C], the IC50 [1] is reported as > 100 µM, the IC50 at 48 h [2] is reported as > 100 µM and the IC50 [3] is reported as > 100 µM. For the same molecule, the IC50 [4] was > 100 µM and the IC50 [5] was > 100 µM.
With `CC(=O)OCc1ccc2oc3cc(=O)c(NC4OC(CO)C(O)C(O)C4O)cc-3nc2c1` (centres unmarked) [Compound 4, exfoliazoneglycoside] the “Zone of inhibition (ZOI), Escherichia coli” value [6] was “–^b”, the IC50 [1] was > 100 µM and the “Zone of inhibition (ZOI), Staphylococcus aureus” value [7] was “–^b”. The MIC [8] was > 100 µg/mL, the IC50 at 48 h [2] was > 100 µM and the “Zone of inhibition (ZOI), MRSA” value [9] was “–^b”. For the same molecule, the IC50 [3] was > 100 µM, the “Zone of inhibition (ZOI), Micrococcus tetragenus” value [10] was “–^b” and the MIC [11, 15] was > 100 µg/mL. The MIC [12] was > 100 µg/mL, the IC50 [4] was > 100 µM and the IC50 [5] was > 100 µM. For the same molecule, the MIC [14] was > 100 µg/mL.
For `C[C@H]1COc2c(N3CCN(C)CC3)c(F)cc3c(=O)c(C(=O)O)cn1c23` [Levofloxacin, levofloxacin, reference compound], the “Zone of inhibition (ZOI), Escherichia coli” value [6] was 33.0 ± 1.0 mm, the “Zone of inhibition (ZOI), Staphylococcus aureus” value [7] was 28.9 ± 0.8 mm and the “Zone of inhibition (ZOI), Staphylococcus aureus” value ([7]; listed as levofloxacin) was 28.9 mm. The MIC [8] was 3.13 µg/mL (≈ 8.66 µM), the “Zone of inhibition (ZOI), MRSA” value [9] was 15.2 ± 0.1 mm and the “Zone of inhibition (ZOI), MRSA” value ([9]; listed as levofloxacin) was 15.2 mm. The “Zone of inhibition (ZOI), Micrococcus tetragenus” value [10] was 24.8 ± 0.6 mm, the “Zone of inhibition (ZOI), Micrococcus tetragenus” value ([10]; listed as levofloxacin) was 24.8 mm and the MIC ([11]; Staphylococcus aureus, MRSA, read-out: Minimum inhibitory concentration (MIC), MRSA) was 6.25 µg/mL (≈ 17.3 µM). For the same molecule, the MIC [12] was 3.13 µg/mL (≈ 8.66 µM) and the MIC [14] was 3.13 µg/mL (≈ 8.66 µM).
With gentamycin sulfate [reference compound] the “Minimum inhibitory concentration (MIC), Staphylococcus aureus” value [8] was 3.13 µg/mL, the “Minimum inhibitory concentration (MIC), MRSA” value [11] was 6.25 µg/mL and the “Minimum inhibitory concentration (MIC), Micrococcus tetragenus” value [12] was 3.13 µg/mL.

Reference: PMC9884962, “Pigments of aminophenoxazinones and viridomycins produced by termite-associated Streptomyces tanashiensis BYF-112” (Frontiers in Microbiology, 2023)
